According to patent US6225478A, “Iridoid derivatives and neovascularization inhibitors containing the same as active ingredient” (Tsumura & Co., priority 1999, dated 2001):

Key:
[1] = tested on: human umbilical-vein endothelial cells (HUVEC); test: Tube Formation Assay (TFA) Test, HUVEC in collagen gel; assay type: cell-based; settings: Tables 75-83, 0.32 mM sample solution, method as for Compounds 1 through 60; for inhibition at 320 µM (stock): Homo sapiens, HUVEC, read-out: TFA Inhibition rate (%)
Method: Furthermore, the sample liquids of compounds used in the CPA and CMA tests were prepared in the manner described below. Firstly, after weighing out each compound, a calculated amount of DMSO was added. After dissolving the compound in the DMSO, phosphate buffered physiological saline (PBS (-)) was added to bring the sample concentration to 1 mg/ml in PBS (-). The amount of DMSO used to dissolve the compounds was adjusted in advance to that the concentration of DMSO at that time was 5%. The resulting liquids were diluted 10-fold with 5% DMSO-PBS (-) solution to prepare sample solutions having a concentration of 0.1 mg/ml. In the TFA test, 320 μl of the prepared 1 mg/ml sample solutions were removed followed by addition of 680 μl of PBS (-) to prepare samples having a concentration of […]. Moreover, 100 μl of this solution was removed followed by addition of 900 μl of PBS (-) to dilute 10-fold and prepare samples having a concentration of 1 μg/ml. P [Cell Proliferation Assay (CPA) Test]
To begin with, 8 volumes of Type 1-A cell matrix (manufactured by Gibco Co.), 1 volume of 10×M119, and 1 volume of reconstituted buffer [200 mM HEPES, 0.05 N sodium hydroxide, 260 mM sodium bicarbonate] were slowly mixed under cooling with ice while avoiding bubbling to form a collagen gel. This collagen gel was distributed in a NUNC 24-well plate at 310 μl/well followed by allowing to stand undisturbed for 2 hours at 37° C. to solidify the gel.
Next, the 7th subculture of HUVEC (1×10^5 cells/ml) obtained from the first generation in the same manner as above were disseminated at 500 μl/well. The cells were cultured for 2 hours at 37° C. to allow the cells to make contact with the collagen. After then removing the medium by aspiration, 50 μl of sample solution were added followed by addition of 310 μl/well of freshly prepared collagen gel and culturing for 1 hour and 10 minutes at 37° C. to solidify the double-layer gel.
1 ml/well of M-199 medium containing 20% FCS, 30 ng /ml of b-FGF and 0.1 μM PMA were added to the wells followed by culturing for 20 hours at 37° C. in the presence of 5% CO2.
Measurement of the lengths of the formed tubes was performed using the public domain NIH Image with a computer.
Evaluation was performed by calculating the inhibition rate (%) of tube formation according to the following formula.
Inhibition rate (%)=100-((formed tube length in presence of sample-formed tube length in presence of control (-))×100/(formed tube length in presence of control (+)-formed tube length in presence of control (-)))
(§1) Samples were prepared using the present compounds of Compound No. I-60 through I-315. More specifically, 32 μl of a 20 mM sample solution dissolved in dimethylsulfoxide (DMSO) were removed and brought to a volume of 1 ml with phosphate-buffered saline (PBS) to prepare a sample solution having a concentration of 0.32 mM (containing 3.2% DMSO).
The testing method used for these compounds was the same as that used for the compounds of Compound No. 1 through 60 previously described.

[2] = tested on: HUFEC; test: Cell Migration Assay (CMA) Test, inhibitory rate with control (-) correction; assay type: cell-based, human; settings: 125 μl of 0.32 mM sample solution in 4.0 ml medium, 80% or more = remarkable; for inhibition at 320 µM (stock): Homo sapiens, 24 h
Method: as §1
After disseminating the 7th subculture of […] obtained from the first generation at 4 ml/well (3.0×10^5 cells/well) in a collagen-coated 6-well plate (NUNC), the cells were cultured for 48 hours at 37° C. in the presence of 5% CO2. The cells reached nearly a completely confluent state as a result of this culturing.
A double-edged, disposable razor blade was divided into four sections, of which one of those sections was pinched between a pair of forceps. Using this piece of razor blade, the cell surface in the above confluent state was scraped off.
After washing the surface of the wells from which the cells had been scraped off with medium, 4.0 ml of fresh M199 (2+) medium were placed in the wells. 4.0 ml of M199 medium were added to the control (-) well.
125 μl of sample solution (0.32 mM, containing 3.2% dimethylsulfoxide) were added to the wells.
125 μl of PBS solution containing 3.2% dimethylsulfoxide were added to the control wells instead of sample. The cells were cultured for 24 hours at 37° C. in the presence of 5% CO2. After discarding the culture liquid, the cells were fixed for 30 minutes with methanol. Next, after […] the cells for 4 hours with Giemsa stain, the plates were washed with tap water and air dried.
Measurement of cell migration was performed by microscopically counting the number of cells that had newly migrated within the range of a 1 mm×1 mm block. […] The total number of cells counted in blocks 1 through 5 were then totaled to determine the overall total number of cells. Four fields were counted for each well.
Evaluation was performed determining the cell migration inhibitory rate (%) according to the following equation.
Inhibitory rate=100-((number of migrating cells to which sample was added-number of migrating cells of control (-))×100/(number of migrating cells of control (+)-number of migrating cells of control (-)))
If this inhibitory rate was 80% or more, cell migration was assessed as being remarkable.

SMILES	inhibition at 320 µM (stock) [1]	inhibition at 320 µM (stock) [2]	TFA (inhibition rate, %) [1]	CMA Inhibition rate (%) ([2]; 24 hours)
COC(=O)C1=CO[C@@H](OC(=O)NC(CO)CO)[C@H]2[C@@H]1CC[C@@H]2C [I-249]	11.1%	44%	–	–
COC(=O)C1=CO[C@@H](OC(=O)NCC(C)C)[C@@H]2C(C)=CC[C@H]12 [I-87]	8.6%	8%	–	–
COC(=O)C1=CO[C@@H](OC(=O)NCc2ccc(F)cc2)[C@@H]2C(C)=CC[C@H]12 [I-108]	3%	11.7%	–	–
COC(=O)C1=CO[C@@H](OC(=O)Nc2ccc(OC(F)(F)F)cc2)[C@H]2[C@@H]1CC[C@@H]2C [I-266]	4.9%	9.4%	–	–
COC(=O)C1=CO[C@@H](OC(=O)Nc2ccc(Cl)c(Cl)c2)[C@@H]2C(C)=CC[C@H]12 [I-163]	11.5%	5.6%	–	–
COC(=O)C1=CO[C@@H](OC(=O)NCc2cccnc2)[C@@H]2C(C)=CC[C@H]12 [I-76]	4.6%	7.6%	–	–
COC(=O)C1=CO[C@@H](OC(=O)NCCc2cccc(F)c2)[C@@H]2C(C)=CC[C@H]12 [I-99]	8.6%	9.9%	–	–
COC(=O)C1=CO[C@@H](OC(=O)NCC2CCCO2)[C@H]2[C@@H]1CC[C@@H]2C (stereo partly shown) [I-181]	3.2%	2.3%	–	–
COC(=O)C1=CO[C@@H](OC(=O)N2CCC(Cc3ccccc3)CC2)[C@@H]2C(C)=CC[C@H]12 [I-94]	6.2%	3.9%	–	–
COC(=O)C1=CO[C@@H](OC(=O)NCCCCl)[C@@H]2C(C)=CC[C@H]12 [I-142]	3.7%	9.8%	–	–
CNC(=O)O[C@@H]1OC=C(C(=O)NCCS)[C@H]2C[C@@H]3O[C@]3(C)[C@@H]12 [I-64]	5.2%	9.4%	–	–
COC(=O)C1=CO[C@@H](OC(=O)N(C)Cc2ccccc2)[C@H]2[C@@H]1CC[C@@H]2C [I-184]	7.4%	37.1%	–	–
CCCCCCC1CC[C@@H]2C(C(=O)OC)=COC[C@H]12 (stereo partly shown) [I-294]	7.8%	4.5%	–	–
CNC(=O)O[C@@H]1OC=C(C(=O)OC)[C@H]2CC=C(C)[C@@H]12 [I-174]	67%	12.9%	–	–
COC(=O)C1=CO[C@@H](OC(N)=O)[C@H]2[C@@H]1CC[C@@H]2C [I-179]	5.2%	81.3%	–	–
COC(=O)C1=CO[C@@H](OC(=O)NCc2ccc(OC)cc2)[C@H]2[C@@H]1CC[C@@H]2C [I-186]	5.5%	6.3%	–	–
COC(=O)C1=CO[C@@H](OC(=O)NCc2ccc3c(c2)OCO3)[C@@H]2C(C)=CC[C@H]12 [I-129]	19.5%	4.3%	–	–
CNC(=O)O[C@@H]1OC=C(C(=O)OC)[C@H]2CC[C@@H](C)[C@@H]12 [I-280]	14.9%	72.4%	–	–
COC(=O)C1=CO[C@@H](OC(=O)NCc2ccc(Br)cc2)[C@@H]2C(C)=CC[C@H]12 [I-143]	8.1%	5.9%	–	–
COC(=O)C1=COC[C@H]2[C@@H]1C[C@@H]1O[C@@]12C [I-303]	30.6%	6.1%	–	–

SMILES	inhibition at 320 µM (stock) [1]	inhibition at 320 µM (stock) [2]	TFA (inhibition rate, %) [1]	CMA Inhibition rate (%) ([2]; 24 hours)
COC(=O)C1=CO[C@@H](OC(=O)NCC#N)[C@H]2[C@@H]1CC[C@@H]2C [I-176]	2.2%	11.7%	–	–
COC(=O)C1=CO[C@@H](OC(=O)Nc2ccc(Cl)c(Cl)c2)[C@H]2[C@@H]1CC[C@@H]2C [I-255]	6%	6.5%	–	–
COC(=O)C1=CO[C@@H](OC(=O)NCCCl)[C@H]2[C@@H]1CC[C@@H]2C [I-258]	3.8%	5.7%	–	–
COCCCNC(=O)O[C@@H]1OC=C(C(=O)OC)[C@H]2CC=C(C)[C@@H]12 [I-121]	9.4%	7.1%	–	–
COC(=O)C1=CO[C@@H](OC(=O)NCCOCCO)[C@@H]2C(C)=CC[C@H]12 [I-101]	6.3%	15.7%	–	–
COC(=O)C1=CO[C@@H](OC(=O)Nc2ccc(C)cc2)[C@@H]2C(C)=CC[C@H]12 [I-169]	13.7%	12.6%	–	–
CNC(=O)O[C@@H]1OC=C(C(=O)N2CCN(CCO)CC2)[C@H]2CC=C(C)[C@@H]12 [I-309]	5.2%	48%	–	–
COC(=O)C1=CO[C@@H](OC(=O)NC2CCCCCC2)[C@H]2[C@@H]1CC[C@@H]2C [I-208]	8.2%	7.6%	–	–
CONC(=O)O[C@@H]1OC=C(C(=O)OC)[C@H]2CC[C@H](C)[C@@H]12 [I-238]	17.8%	5.9%	–	–
C[C@]12O[C@H]1C[C@@H]1C(C(=O)O)=CO[C@@H](OC(=O)NCCCl)[C@@H]12 [I-67]	–	–	19.7%	29.5%
C[C@]12O[C@H]1C[C@@H]1C(C(=O)N3CCN(CCO)CC3)=CO[C@@H](OC(=O)NCCCl)[C@@H]12 [I-68]	9.2%	65.6%	–	–
COC(=O)C1=CO[C@@H](OC(=O)NCCO)[C@H]2[C@@H]1CC[C@@H]2C [I-187]	11.7%	31.3%	–	–
COC(=O)C1=CO[C@@H](OC(=O)NCc2ccc(Cl)c(Cl)c2)[C@@H]2C(C)=CC[C@H]12 [I-74]	5.8%	23.4%	–	–
COC(=O)C1=CO[C@@H](OC(=O)NCCc2ccc(O)c(OC)c2)[C@H]2[C@@H]1CC[C@@H]2C [I-248]	5.7%	2.2%	–	–
COC(=O)C1=CO[C@@H](OC(=O)Nc2ccc(SC)cc2)[C@@H]2C(C)=CC[C@H]12 [I-172]	8.7%	5.5%	–	–
COC(=O)C1=CO[C@@H](OC(=O)NCCc2ccc(O)c(OC)c2)[C@@H]2C(C)=CC[C@H]12 [I-146]	7.8%	17.2%	–	–
C[C@@H]1CC[C@@H]2C(C(=O)N3CCN(CCO)CC3)=COC[C@H]12 [I-305]	23.1%	7.6%	–	–
CCN(CCO)C(=O)O[C@@H]1OC=C(C(=O)OC)[C@H]2CC=C(C)[C@@H]12 [I-97]	29.1%	7.7%	–	–
COC(=O)C1=CO[C@@H](OC(=O)N(CCO)CCO)[C@H]2[C@@H]1CC[C@@H]2C [I-240]	7.4%	8.5%	–	–
COC(=O)C1=CO[C@@H](OC(=O)Nc2ccc(F)cc2F)[C@@H]2C(C)=CC[C@H]12 [I-154]	56.2%	–	–	–
